Experimental data reported in patent publication US12583870B2, “Azaheteroaryl compound and application thereof” (SHANGHAI BLUERAY BIOPHARMA CO., LTD., priority 2019, dated 2026).

How the values were obtained:
[1] = target: T1, EED protein (His6-tagged full-length) binding to H3K27me3 polypeptide (Homo sapiens, UniProt O75530); assay: AlphaScreen evaluation of blocking the binding of EED to H3K27Me3; conditions: EED 60 nM, biotinylated H3K27me3 75 nM, 30 minutes incubation
T1 construct: His6-tagged full-length EED protein (441 amino acids)
Procedure: Firstly, compound solutions of different concentration gradients were prepared. Compound powder was dissolved in DMSO to prepare a mother liquor. 1.5 μl of the mother liquor of the compound was taken and added into 198.5 μl of a reaction buffer (25 mM HEPES (pH 8.0), 50 mM NaCl, 0.015% Tween 20, 0.5% BSA). The mixture was mixed uniformly. Then a 3-fold series dilution was carried out with the above-mentioned buffer containing 0.75% DMSO. 9 different test concentrations were provided for one same compound. 5 μL of compounds of different concentration gradients were taken and added into the ProxiPlate-384 Plus, White detection plate (PerkinElmer, 6008280) and two replicates in parallel were provided for each concentration gradient.
Secondly, a reaction for blocking the binding was carried out. The above-mentioned buffer was used to dilute His6-tagged full-length EED protein (441 amino acids) to 60 nM and biotinylated polypeptide fragment H3K27me3 (amino acids at positions 19-33) (Biotinylated-H3K27me3) to 75 nM. 5 μl of the polypeptide fragment at the concentration of 75 nM and 5 µl of the protein at the concentration of 60 nM were transferred to the detection wells containing the compound, respectively. The detection plate was sealed with the film and incubation was carried out at room temperature for 30 minutes.
Finally, the detection was carried out with the AlphaScreen method. Prior use, nickel chelate receptor beads and streptavidin donor beads (at the ratio of 1:1, Perkin Elmer, product number 6760619M) were mixed with the above-mentioned reaction buffer. Then 5 μl of the above-mentioned pre-mixed detection solution was added to each of the detection wells. The donor beads and receptor beads were both at a final concentration of 5 μg/mL. The detection plate was covered and sealed with tinfoil and placed in the dark at room temperature for 1 hour. The signal was read using the AlphaScreen detector on the Spectra max i3. AlphaScreen signals were standardlized based on the readings obtained from positive controls (maximum signal controls) and negative controls (minimum signal controls) to give the inhibition rates for compounds at different concentrations, and afterwards non-linear regression analysis was carried out using GraphPad Prism 5, inhibition curves were made based on the Dose-Response equation of Y=Bottom+(Top−Bottom)/(1+10^((Log IC50−X)*HillSlope)) and the IC50 values of each compound were obtained. […]

[2] = tested on: trimethylation level of histone H3K27 in G401 cells; assay: ELISA (H3K27 trimethylation) analysis in G401 cells; format: cell-based; conditions: Homo sapiens, G-401, 72 hours, H3K27me3 standardized to H3
Summary of the method: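 Cells exposed 72 h to 10-point 3-fold dilutions, top 10 μM, 0.5% final DMSO. Acid-extracted histones assayed by ELISA (ECL) for H3K27me3, normalized to total H3 and to DMSO control; IC50 from dose-response fit.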

[3] = tested on: KARPAS-422 cells; assay: Cell proliferation analysis, KARPAS-422, 13 days, CellTiter-Glo; format: cell-based; conditions: Homo sapiens, 312 h
Summary of the method: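 KARPAS-422 cells were treated with PRC2 inhibitors over 9 three-fold dilutions from 10 μM top (0.5% DMSO, duplicates) in RPMI-1640 with 15% FBS at 37 °C. Every 3–4 days cells were counted and reseeded at 1×10^4/well with fresh compound. Viability was read by CellTiter-Glo luminescence on day 13.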

T1 sequence (O75530 whole entry): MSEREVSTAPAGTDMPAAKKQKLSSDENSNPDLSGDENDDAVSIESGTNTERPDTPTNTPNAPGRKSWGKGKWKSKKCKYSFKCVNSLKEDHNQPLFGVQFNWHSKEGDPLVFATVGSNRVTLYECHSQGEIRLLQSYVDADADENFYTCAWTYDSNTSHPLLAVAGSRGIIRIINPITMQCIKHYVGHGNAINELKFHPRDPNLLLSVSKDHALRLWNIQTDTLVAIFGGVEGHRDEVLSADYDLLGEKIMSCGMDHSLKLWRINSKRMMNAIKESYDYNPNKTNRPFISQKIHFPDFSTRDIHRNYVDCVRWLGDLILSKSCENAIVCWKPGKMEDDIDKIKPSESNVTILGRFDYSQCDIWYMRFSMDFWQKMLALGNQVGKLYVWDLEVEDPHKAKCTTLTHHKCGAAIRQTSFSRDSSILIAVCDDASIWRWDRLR

Compound	IC50 [1]	IC50 [2]	IC50 [3]
CC1=C(F)S(=O)(=O)c2ccc(-c3cnc(NCc4c(F)ccc5c4[C@H]4C[C@H]4O5)n4cnnc34)cc21 [2-fluoro-5-(5-((((1aR,6bR)-5-fluoro-1a,6b-dihydro-1H-cyclopropa[b]benzofuran-6-yl)methyl)amino)-[1,2,4]triazolo[4,3-c]pyrimidin-8-yl)-3-methylbenzo[b]thiophene 1,1-dioxide]	0.0041 µM	0.022 µM	0.032 µM
Fc1ccc2c(c1CNc1ncc(-c3cccn4cc(C(F)(F)F)nc34)c3nncn13)CCO2 [N-((5-fluoro-2,3-dihydrobenzofuran-4-yl)methyl)-8-(2-(trifluoromethyl)imidazo[1,2-a]pyridin-8-yl)-[1,2,4]triazolo[4,3-c]pyrimidin-5-amine]	0.0035 µM	0.0024 µM	0.0017 µM
CCOC(=O)c1c(C(F)(F)F)nc2c(-c3cnc(NCc4c(F)ccc5c4CCO5)n4cnnc34)cccn12 [Ethyl 8-(5-(((5-fluoro-2,3-dihydrobenzofuran-4-yl)methyl)amino)-[1,2,4]triazolo[4,3-c]pyrimidin-8-yl)-2-(trifluoromethyl)imidazo[1,2-a]pyridine-3-carboxylate]	0.029 µM	0.202 µM	–
CCOC(=O)c1c(O)nc2c(-c3cnc(NCc4c(F)ccc5c4CCO5)n4cnnc34)cccn12 [Ethyl 8-(5-(((5-fluoro-2,3-dihydrobenzofuran-4-yl)methyl)amino)-[1,2,4]triazolo[4,3-c]pyrimidin-8-yl)-2-hydroxyimidazo[1,2-a]pyridine-3-carboxylate]	0.0221 µM	0.068 µM	–
Fc1ccc2c(c1CNc1ncc(-c3c(C(F)(F)F)ccc4nsnc34)c3nncn13)CCO2 [N-((5-fluoro-2,3-dihydrobenzofuran-4-yl)methyl)-8-(5-(trifluoromethyl)benzo[c][1,2,5]thiadiazol-4-yl)-[1,2,4]triazolo[4,3-c]pyrimidin-5-amine]	0.0464 µM	0.17 µM	–
O=C(O)c1cnc2c(-c3cnc(NCc4c(F)ccc5c4CCO5)n4cnnc34)cccn12 [8-(5-(((5-fluoro-2,3-dihydrobenzofuran-4-yl)methyl)amino)-[1,2,4]triazolo[4,3-c]pyrimidin-8-yl)imidazo[1,2-a]pyridine-3-carboxylic acid]	0.0051 µM	0.329 µM	–
CCOC(=O)c1c(C)nc2c(-c3cnc(NCc4c(F)ccc5c4CCO5)n4cnnc34)cc(F)cn12 [Ethyl 6-fluoro-8-(5-(((5-fluoro-2,3-dihydrobenzofuran-4-yl)methyl)amino)-[1,2,4]triazolo[4,3-c]pyrimidin-8-yl)-2-methylimidazo[1,2-a]pyridine-3-carboxylate]	0.0452 µM	0.087 µM	–
Fc1ccc2c(c1CNc1ncc(C3=CC=CN4CCN=C34)c3nncn13)CCO2 [8-(2,3-dihydroimidazo[1,2-a]pyridin-8-yl)-N-((5-fluoro-2,3-dihydrobenzofuran-4-yl)methyl)-[1,2,4]triazolo[4,3-c]pyrimidin-5-amine]	0.0052 µM	–	–
Fc1ccc2c(c1CNc1ncc(-c3cccc4cccnc34)c3nncn13)CCO2 [N-((5-fluoro-2,3-dihydrobenzofuran-4-yl)methyl)-8-(quinolin-8-yl)-[1,2,4]triazolo[4,3-c]pyrimidin-5-amine]	0.0051 µM	0.0029 µM	–
CCOC(=O)c1c(O)nc2c(-c3cnc(NCc4c(F)ccc5c4CCO5)n4cnnc34)cc(F)cn12 [Ethyl 6-fluoro-8-(5-(((5-fluoro-2,3-dihydrobenzofuran-4-yl)methyl)amino)-[1,2,4]triazolo[4,3-c]pyrimidin-8-yl)-2-hydroxyimidazo[1,2-a]pyridine-3-carboxylate]	0.0912 µM	0.091 µM	–
O=S1(=O)C=c2cc(-c3cnc(NCc4c(F)ccc5c4[C@H]4C[C@H]4O5)n4cnnc34)ccc2=C1F [1-fluoro-5-(5-((((1aR,6bR)-5-fluoro-1a,6b-dihydro-1H-cyclopropa[b]benzofuran-6-yl)methyl)amino)-[1,2,4]triazolo[4,3-c]pyrimidin-8-yl)benzo[c]thiophene 2,2-dioxide]	0.186 µM	0.075 µM	–

Now from value to molecule:

IC50 [1]	IC50 [2]	IC50 [3]	Compound
0.0221 µM	0.047 µM	–	CCOC(=O)c1cnc2c(-c3cnc(NCc4c(F)ccc5c4CCO5)n4cnnc34)cc(F)cn12 [Ethyl 6-fluoro-8-(5-(((5-fluoro-2,3-dihydrobenzofuran-4-yl)methyl)amino)-[1,2,4]triazolo[4,3-c]pyrimidin-8-yl)imidazo[1,2-a]pyridine-3-carboxylate]
0.0049 µM	0.0029 µM	0.002 µM	Fc1cc(-c2cnc(NCc3c(F)ccc4c3CCO4)n3cnnc23)c2nccn2c1 [N-((5-fluoro-2,3-dihydrobenzofuran-4-yl)methyl)-8-(6-fluoroimidazo[1,2-a]pyridin-8-yl)-[1,2,4]triazolo[4,3-c]pyrimidin-5-amine]
0.0074 µM	0.0057 µM	0.004 µM	Cc1cnc2c(-c3cnc(NCc4c(F)ccc5c4CCO5)n4cnnc34)cc(F)cn12 [N-((5-fluoro-2,3-dihydrobenzofuran-4-yl)methyl)-8-(6-fluoro-3-methylimidazo[1,2-a]pyridin-8-yl)-[1,2,4]triazolo[4,3-c]pyrimidin-5-amine]
0.0046 µM	0.0016 µM	0.0014 µM	Cc1cnc2c(-c3cnc(NCc4c(F)ccc5c4CCO5)n4cnnc34)cccn12 [N-((5-fluoro-2,3-dihydrobenzofuran-4-yl)methyl)-8-(3-methylimidazo[1,2-a]pyridin-8-yl)-[1,2,4]triazolo[4,3-c]pyrimidin-5-amine]
0.0054 µM	0.004 µM	–	Cc1ccc(-c2cnc(NCc3c(F)ccc4c3CCO4)n3cnnc23)c2ncc(C(=O)O)n12 [8-(5-(((5-fluoro-2,3-dihydrobenzofuran-4-yl)methyl)amino)-[1,2,4]triazolo[4,3-c]pyrimidin-8-yl)-5-methylimidazo[1,2-a]pyridine-3-carboxylic acid]
0.0058 µM	0.0061 µM	–	Cc1ccc(-c2cnc(NCc3c(F)ccc4c3CCO4)n3cnnc23)c2ncc(F)n12 [N-((5-fluoro-2,3-dihydrobenzofuran-4-yl)methyl)-8-(3-fluoro-5-methylimidazo[1,2-a]pyridin-8-yl)-[1,2,4]triazolo[4,3-c]pyrimidin-5-amine]
0.0049 µM	0.0129 µM	–	Fc1ccc2c(c1CNc1ncc(-c3cnc4nccn4c3)c3nncn13)CCO2 [N-((5-fluoro-2,3-dihydrobenzofuran-4-yl)methyl)-8-(imidazo[1,2-a]pyrimidin-6-yl)-[1,2,4]triazolo[4,3-c]pyrimidin-5-amine]
0.0092 µM	0.0035 µM	–	Fc1ccc2c(c1CNc1ncc(-c3cccn4c(F)cnc34)c3nncn13)CCO2
0.011 µM	0.127 µM	–	CC1=C(Cl)c2cc(-c3cnc(NCc4c(F)ccc5c4[C@H]4C[C@H]4O5)n4cnnc34)ccc2S1(=O)=O [3-chloro-5-(5-((((1aR,6bR)-5-fluoro-1a,6b-dihydro-1H-cyclopropa[b]benzofuran-6-yl)methyl)amino)-[1,2,4]triazolo[4,3-c]pyrimidin-8-yl)-2-methylbenzo[b]thiophene 1,1-dioxide]
0.0096 µM	0.089 µM	–	Fc1ccc2c(c1CNc1ncc(-c3cc(Cl)cn4cc(C(F)(F)F)nc34)c3nncn13)CCO2
0.0039 µM	0.026 µM	–	CC1=Cc2cc(-c3cnc(NCc4c(F)ccc5c4CCO5)n4cnnc34)cc(Cl)c2S1(=O)=O [7-chloro-5-(5-(((5-fluoro-2,3-dihydrobenzofuran-4-yl)methyl)amino)-[1,2,4]triazolo[4,3-c]pyrimidin-8-yl)-2-methylbenzo[b]thiophene 1,1-dioxide]
0.0157 µM	0.041 µM	–	Cc1cc(-c2cnc(NCc3c(F)ccc4c3CCO4)n3cnnc23)c2nc(C(F)(F)F)cn2c1 [N-((5-fluoro-2,3-dihydrobenzofuran-4-yl)methyl)-8-(6-methyl-2-(trifluoromethyl)imidazo[1,2-a]pyridin-8-yl)-[1,2,4]triazolo[4,3-c]pyrimidin-5-amine]
